Source: patent publication US7223759B2, “Antibacterial 3,5-diaminopiperidine-substituted aromatic and heteroaromatic compounds” (Anadys Pharmaceuticals, Inc., priority 2003, dated 2007)

These molecules were tested on Escherichia coli (ATCC25922) or Staphylococcus aureus (ATCC25923) (assay: Antibacterial MIC, microdilution method in Mueller-Hinton medium). Settings: Escherichia coli, 18 h, MIC in E. coli or S. aureus; two-fold serial dilutions 64 to 0.5 μg/ml in duplicate; 18 hours of incubation at 35° C.; read-out: Potency (MIC).
Format: cell-based
Procedure, shortened: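 Read after 18 h incubation at 35° C, MIC is the lowest compound level that blocked growth. Compounds were tested in duplicate over 64–0.5 μg/ml two-fold dilutions using Mueller-Hinton microdilution per NCCLS standard.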

Molecule	MIC [µg/mL]
CC(=O)Nc1ccc(Nc2nc(N3C[C@H](N)C[C@H](N)C3)nc(N3C[C@H](N)C[C@H](N)C3)n2)cc1 [drawing 178, N-(4-acetylamino-phenyl)-4,6-Bis-((3R,5S)-3,5-diamino-piperidin-1-yl)-[1,3,5]triazine-2-amine]	> 64
Cc1ccc(C(=O)Nc2ccc(Nc3nc(N4CCCCC4)nc(N4CCCC4)n3)cc2O)cc1.Cl [drawing 244, N-{4-[4-((3R,5S)-3,5-Diamino-piperidin-1-yl)-6-((3R,4S)-3,4-dihydrooxy-pyrrolidin-1-yl)-[1,3,5]triazin-2-ylamino]-2-hydroxy-phenyl}-4-methyl-benzamide]	> 64

Same assay, conditions: Escherichia coli, 18 h, read-out: Potency (MIC)

Molecule	MIC [µg/mL]
Cc1ccc(S(=O)(=O)N(Cc2ccccc2)c2ccc(Nc3nc(N4C[C@H](N)C[C@H](N)C4)nc(N4C[C@H](N)C[C@H](N)C4)n3)cc2O)cc1 [N-{4-[benzyl-(toluene-4-sulfonyl)-amino]-3-hydroxy-phenyl}-4,6-Bis-((3R,5S)-3,5-diamino-piperidin-1-yl)-[1,3,5]triazine-2-amine]	< 16
CC(=O)Nc1ccc(Nc2nc(N3C[C@H](N)C[C@H](N)C3)nc(N3C[C@H](N)C[C@H](N)C3)n2)cc1 [drawing 485, N-(4-acetylamino-phenyl)-4,6-Bis-((3R,5S)-3,5-diamino-piperidin-1-yl)-[1,3,5]triazine-2-amine]	< 64

Same assay, conditions: MIC in E. coli or S. aureus; two-fold serial dilutions 64 to 0.5 μg/ml in duplicate; 18 hours of incubation at 35° C.

Molecule	Potency (MIC)
Cl.O=C(Oc1ccccc1)c1ccc(Nc2nc(N3CCCCC3)nc(N3CCCCC3)n2)cc1O [drawing 229, 4-[4-((3S,5R)-3,5-diamino-piperidin-1-yl)-6-((3R,5R)-3,5-dihydroxy-piperidin-1-yl)-[1,3,5]triazin-2-ylamino]-2-hydroxy-benzoic acidphenyl ester]	− (− means MIC>64 μg/ml in E. coli or S. aureus)
Cc1ccc(C(=O)Nc2ccc(Nc3nc(N4CCCCC4)nc(N4CCCC4)n3)cc2O)cc1.Cl [drawing 285, NM-{4-[4-((3R,5S)-3,5-Diamino-piperidin-1-yl)-6-((3R,4S)-3,4-diamino-pyrrolidin-1-yl)-[1,3,5]triazin-2-ylamino]-2-hydroxy-phenyl}-4-methyl-benzamide]	+ (+ means MIC<64 μg/ml in E. coli or S. aureus)
Cl.O=C(Oc1ccccc1)c1ccc(Nc2nc(N3CCCCC3)nc(N3CCCCC3)n2)cc1O [drawing 569, 4-[4,6-Bis-((3R,5S)-3,5-diamino-piperidin-1-yl)-[1,3,5]triazin-2-ylamino]-2-hydroxy-benzoic acidphenyl ester]	++ (++ means MIC<16 μg/ml in E. coli or S. aureus)
N-(4-acetylamino-3,5-dichloro-phenyl)-4,6-Bis-0((3R,5S)-3,5-diamino-piperidin-1-yl)-[1,3,5]triazine-2-amine	− (− means MIC>64 μg/ml in E. coli or S. aureus)
N-(4-phenylazo-phenyl)-4,6-Bis-((3R,5S)-3,5-0diamino-piperidin-1-yl)-[1,3,5]triazine-2-amine	++ (++ means MIC<16 μg/ml in E. coli or S. aureus)
N-(4-thioureido-iminomethyl-phenyl)-4,6-Bis-((3R,5S)-3,5-diamino-piperidin-1-yl)-[1,3,5]triazine-2-amine	+ (+ means MIC<64 μg/ml in E. coli or S. aureus)
N-[4-(cyclohexanecarbonyl-amino)-3-hydroxy-phenyl]-4,6-Bis-((3R,5S)-3,5-0diamino-piperidin-1-yl)-[1,3,5]triazine-2-amine	+ (+ means MIC<64 μg/ml in E. coli or S. aureus)
carboxylic acid {4-[4-((2S,4S)-4-amino-2-hydroxymethyl-pyrrolidin-1-yl)-6-((3R,5S)-3,5-diamino-piperidin-1-yl)-[1,3,5]triazine-2-ylamino]-phenyl}-amide	++ (++ means MIC<16 μg/ml in E. coli or S. aureus)
